ChEMBL document CHEMBL1124939, “Synthesis of thromboxane receptor antagonists with bicyclo[3.1.0]hexane ring systems” (J Med Chem, 1990)

Legend:
Assay type in all cases: functional
Rattus norvegicus [1] = species on record: Rattus norvegicus; assay: The partial agonistic activity (shape change of rat WP) induced by test compound at 1 uM was calibrated for that of S-145
Oryctolagus cuniculus = species on record: Oryctolagus cuniculus; assay: Tested for the inhibitory activity against aggregation of rabbit platelet-rich plasma (PRP) induced by 500 uM of arachidonic acid.
Rattus norvegicus [2] = species on record: Rattus norvegicus; assay: Tested for the inhibitory activity against aggregation of rat washed platelets (WP) induced by 4 micro g/mL of collagen.

SMILES	IC50 (Oryctolagus cuniculus) [nM]	IC50 (Rattus norvegicus [2]) [nM]	Relative agonist activity (Rattus norvegicus [1])
O=C([O-])CCC/C=C\C[C@H]1C2O[C@H]2C[C@H]1NS(=O)(=O)c1ccccc1.[Na+] (mixture of isomers)	49100	23	26
O=C([O-])CCC/C=C\C[C@H]1[C@H]2S[C@H]2C[C@@H]1NS(=O)(=O)c1ccccc1.[Na+] (racemic)	11300	2.9	74
O=C([O-])CCC/C=C\C[C@H]1[C@@H]2S[C@@H]2C[C@@H]1NS(=O)(=O)c1ccccc1.[Na+] (racemic)	178000	10	0
CC1(C)[C@H]2[C@H](C/C=C\CCCC(=O)[O-])[C@@H](NS(=O)(=O)c3ccccc3)C[C@H]21.[Na+] (racemic)	432000	4.1	11
CC1(C)[C@@H]2[C@H](C/C=C\CCCC(=O)[O-])[C@@H](NS(=O)(=O)c3ccccc3)C[C@@H]21.[Na+] (racemic)	44000	4.3	22
O=C([O-])CCC/C=C\C[C@H]1C2O[C@H]2C[C@@H]1NS(=O)(=O)c1ccccc1.[Na+] (mixture of isomers)	2600	4	82

Further lines, with some results ahead:

IC50 (Oryctolagus cuniculus) [nM]	IC50 (Rattus norvegicus [2]) [nM]	SMILES	Relative agonist activity (Rattus norvegicus [1])
5300	8.3	O=C([O-])CCC/C=C\C[C@H]1[C@H]2C[C@H]2C[C@@H]1NS(=O)(=O)c1ccccc1.[Na+] (racemic)	67
37800	25	O=C([O-])CCC/C=C\C[C@H]1C2CC2C[C@H]1NS(=O)(=O)c1ccccc1.[Na+] (mixture of isomers)	33
1000	1	O=C(O)CCC/C=C\C[C@H]1[C@@H]2CCC(C2)[C@@H]1NS(=O)(=O)c1ccccc1	100
11300	12.5	O=C([O-])CCC/C=C\C[C@H]1[C@@H]2C[C@@H]2C[C@@H]1NS(=O)(=O)c1ccccc1.[Na+] (racemic)	22
391000	100	O=C([O-])CCC/C=C\C[C@H]1C2OC2C[C@@H]1NS(=O)(=O)c1ccccc1.[Na+] (mixture of isomers)	0
